PubChem BioAssay (NCI)
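Assay format: 96-well plates, 48-hour exposure. At the GI50, growth is halved. TGI: total growth inhibition.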

Columns and labels:
Experiment in all cases: inhibition of tumour cell growth, NCI panel, 48 h
OVCAR-5 ovarian = system: OVCAR-5 ovarian
PC-3 prostate = system: PC-3 prostate
OVCAR-8 ovarian = system: OVCAR-8 ovarian
HS 578T breast = system: HS 578T breast
HCC-2998 colon = system: HCC-2998 colon
OVCAR-4 ovarian = system: OVCAR-4 ovarian
DU-145 prostate = system: DU-145 prostate
U251 CNS = system: U251 CNS
HCT-15 colon = system: HCT-15 colon
CAKI-1 renal = system: CAKI-1 renal
M14 melanoma = system: M14 melanoma
786-0 renal = system: 786-0 renal
NCI-H460 lung = system: NCI-H460 lung
SK-MEL-28 melanoma = system: SK-MEL-28 melanoma
MDA-MB-435 = system: MDA-MB-435
RXF 393 renal = system: RXF 393 renal
UACC-257 melanoma = system: UACC-257 melanoma
MCF7 breast = system: MCF7 breast
TK-10 renal = system: TK-10 renal
SNB-19 CNS = system: SNB-19 CNS
CCRF-CEM leukemia = system: CCRF-CEM leukemia
MALME-3M melanoma = system: MALME-3M melanoma
SF-295 CNS = system: SF-295 CNS
SN12C renal = system: SN12C renal
RPMI-8226 leukemia = system: RPMI-8226 leukemia
UACC-62 melanoma = system: UACC-62 melanoma
MOLT-4 leukemia = system: MOLT-4 leukemia
A549 NSCLC = system: A549 NSCLC
A498 renal = system: A498 renal
OVCAR-3 ovarian = system: OVCAR-3 ovarian
NCI-H522 lung = system: NCI-H522 lung
HL-60(TB) leukemia = system: HL-60(TB) leukemia
SK-MEL-2 melanoma = system: SK-MEL-2 melanoma
SF-268 CNS = system: SF-268 CNS
IGROV1 ovarian = system: IGROV1 ovarian
K-562 leukemia = system: K-562 leukemia
KM12 colon = system: KM12 colon
NCI-H23 lung = system: NCI-H23 lung
HCT-116 colon = system: HCT-116 colon
BT-549 breast = system: BT-549 breast
ACHN renal = system: ACHN renal
MDA-MB-468 breast = system: MDA-MB-468 breast
SF-539 CNS = system: SF-539 CNS
T-47D breast = system: T-47D breast
SW-620 colon = system: SW-620 colon
NCI-H226 lung = system: NCI-H226 lung
EKVX NSCLC = system: EKVX NSCLC
SK-OV-3 ovarian = system: SK-OV-3 ovarian
NCI/ADR-RES ovarian = system: NCI/ADR-RES ovarian
SR leukemia = system: SR leukemia
HOP-92 NSCLC = system: HOP-92 NSCLC
HT29 colon = system: HT29 colon
UO-31 renal = system: UO-31 renal
HOP-62 NSCLC = system: HOP-62 NSCLC
SK-MEL-5 melanoma = system: SK-MEL-5 melanoma
LOX IMVI melanoma = system: LOX IMVI melanoma
MDA-MB-231 breast = system: MDA-MB-231 breast
COLO 205 colon = system: COLO 205 colon
SNB-75 CNS = system: SNB-75 CNS

## C/C(=N\Nc1ccc(S(N)(=O)=O)cc1)c1ccc(N=Nc2c(Nc3ccccc3)[nH][nH]c2=O)cc1
OVCAR-5 ovarian
  GI50: 11 µM
  TGI: 24.4 µM
PC-3 prostate
  GI50: 3.06 µM
  TGI: 11.3 µM
OVCAR-8 ovarian
  GI50: 2.59 µM
  TGI: 7.81 µM
HS 578T breast
  GI50: 3.31 µM
  TGI: 19.4 µM
HCC-2998 colon
  GI50: 2.29 µM
  TGI: 6.08 µM
OVCAR-4 ovarian
  GI50: 2.84 µM
  TGI: 9.26 µM
DU-145 prostate
  GI50: 3.21 µM
  TGI: 10.4 µM
U251 CNS
  GI50: 1.88 µM
  TGI: 3.76 µM
HCT-15 colon
  GI50: 5.29 µM
  TGI: 18.4 µM
CAKI-1 renal
  GI50: 12.5 µM
  TGI: 25.1 µM
M14 melanoma
  GI50: 2.83 µM
  TGI: 7.55 µM
786-0 renal
  GI50: 2.14 µM
  TGI: 6.27 µM
NCI-H460 lung
  GI50: 3.21 µM
  TGI: 11.1 µM
SK-MEL-28 melanoma
  GI50: 1.91 µM
  TGI: 3.65 µM
MDA-MB-435
  GI50: 2.07 µM
  TGI: 5.03 µM
RXF 393 renal
  GI50: 1.1 µM
  TGI: 3.88 µM
UACC-257 melanoma
  GI50: 3.97 µM
  TGI: 16.7 µM
MCF7 breast
  GI50: 2.4 µM
  TGI: 7.34 µM
TK-10 renal
  GI50: 18.6 µM
  TGI: 56.8 µM
SNB-19 CNS
  GI50: 2.59 µM
  TGI: 8.76 µM
CCRF-CEM leukemia
  GI50: 2.63 µM
  TGI: 8.92 µM
MALME-3M melanoma
  GI50: 1.98 µM
  TGI: 3.85 µM
SF-295 CNS
  GI50: 3.67 µM
  TGI: 13.6 µM
SN12C renal
  GI50: 2.38 µM
  TGI: 6.58 µM
RPMI-8226 leukemia
  GI50: 3.36 µM
  TGI: 28.2 µM
UACC-62 melanoma
  GI50: 1.96 µM
  TGI: 4.34 µM
MOLT-4 leukemia
  GI50: 1.64 µM
  TGI: 5.24 µM
A549 NSCLC
  GI50: 19.4 µM
  TGI: > 100 µM
A498 renal
  GI50: 11.4 µM
  TGI: 32.8 µM
OVCAR-3 ovarian
  GI50: 1.87 µM
  TGI: 4.54 µM
NCI-H522 lung
  GI50: 2.17 µM
  TGI: 5.25 µM
HL-60(TB) leukemia
  GI50: 2.86 µM
  TGI: 17.1 µM
SK-MEL-2 melanoma
  GI50: 2.11 µM
  TGI: 4.38 µM
SF-268 CNS
  GI50: 2.22 µM
  TGI: 6.23 µM
IGROV1 ovarian
  GI50: 4.5 µM
  TGI: 17.6 µM
K-562 leukemia
  GI50: 2.29 µM
  TGI: 6.37 µM
KM12 colon
  GI50: 2.66 µM
  TGI: 8.95 µM
NCI-H23 lung
  GI50: 2.54 µM
  TGI: 6.53 µM
HCT-116 colon
  GI50: 3.04 µM
  TGI: 10.3 µM
BT-549 breast
  GI50: 2.83 µM
  TGI: 9.66 µM
ACHN renal
  GI50: 5.9 µM
  TGI: 18.5 µM
MDA-MB-468 breast
  GI50: 1.4 µM
  TGI: 3 µM
SF-539 CNS
  GI50: 1.58 µM
  TGI: 3.68 µM
T-47D breast
  GI50: 2.22 µM
  TGI: 5.92 µM
SW-620 colon
  GI50: 3.18 µM
  TGI: 12.6 µM
NCI-H226 lung
  GI50: 3.31 µM
  TGI: 12.3 µM
EKVX NSCLC
  GI50: 5.39 µM
  TGI: 26.9 µM
SK-OV-3 ovarian
  GI50: 2.34 µM
  TGI: 6.47 µM
NCI/ADR-RES ovarian
  GI50: > 100 µM
  TGI: > 100 µM
SR leukemia
  GI50: 1.74 µM
  TGI: 5.33 µM
HOP-92 NSCLC
  GI50: 1.3 µM
  TGI: 6.55 µM
HT29 colon
  GI50: 3.58 µM
  TGI: 11.6 µM
UO-31 renal
  GI50: 19.4 µM
  TGI: > 100 µM
HOP-62 NSCLC
  GI50: 2.05 µM
  TGI: 6 µM
SK-MEL-5 melanoma
  GI50: 3.32 µM
  TGI: 12.8 µM
LOX IMVI melanoma
  GI50: 2.13 µM
  TGI: 4.33 µM
MDA-MB-231 breast
  GI50: 2 µM
  TGI: 4.07 µM
COLO 205 colon
  GI50: 3.28 µM
  TGI: 12 µM

## CC[C@]12C=CCN3CC[C@]4(C(=C(C(=O)OC)C1)Nc1cc(OC)c([C@@H]5[C@H]6O[C@H]6[C@@]6(CC)CC(C(=O)OC)=C7Nc8cc(O)ccc8[C@@]78CCN5[C@@H]68)cc14)[C@@H]32
OVCAR-5 ovarian
  GI50: 10.5 µM
  TGI: 27.5 µM
PC-3 prostate
  GI50: 1.99 µM
  TGI: 16.7 µM
OVCAR-8 ovarian
  GI50: 12.4 µM
  TGI: > 56.5 µM
HS 578T breast
  GI50: 11.7 µM
  TGI: > 56.5 µM
HCC-2998 colon
  GI50: 3.32 µM
  TGI: 10.9 µM
OVCAR-4 ovarian
  GI50: 5.68 µM
  TGI: > 56.5 µM
DU-145 prostate
  GI50: 12.3 µM
  TGI: 50 µM
U251 CNS
  GI50: 4.33 µM
  TGI: 14.6 µM
HCT-15 colon
  GI50: 2.91 µM
  TGI: 11.4 µM
CAKI-1 renal
  GI50: 4 µM
  TGI: 50.1 µM
M14 melanoma
  GI50: 2.91 µM
  TGI: 16.3 µM
786-0 renal
  GI50: 5.71 µM
  TGI: 49.4 µM
NCI-H460 lung
  GI50: 2.87 µM
  TGI: 10.9 µM
SK-MEL-28 melanoma
  GI50: 7.57 µM
  TGI: 24.5 µM
MDA-MB-435
  GI50: 3.71 µM
  TGI: 14.2 µM
RXF 393 renal
  GI50: 2.6 µM
  TGI: 12.5 µM
UACC-257 melanoma
  GI50: 4.3 µM
  TGI: 15.5 µM
MCF7 breast
  GI50: 1.73 µM
  TGI: 11.6 µM
TK-10 renal
  GI50: 21.2 µM
  TGI: > 56.5 µM
SNB-19 CNS
  GI50: 14.6 µM
  TGI: > 56.5 µM
CCRF-CEM leukemia
  GI50: 2.19 µM
  TGI: > 56.5 µM
MALME-3M melanoma
  GI50: 5.97 µM
  TGI: 12.8 µM
SF-295 CNS
  GI50: 5 µM
  TGI: 15.3 µM
SNB-75 CNS
  GI50: 2.95 µM
  TGI: > 56.5 µM
SN12C renal
  GI50: 6.01 µM
  TGI: 15.3 µM
RPMI-8226 leukemia
  GI50: 1.53 µM
  TGI: > 56.5 µM
UACC-62 melanoma
  GI50: 3.27 µM
  TGI: 11.6 µM
MOLT-4 leukemia
  GI50: 1.34 µM
  TGI: 6.82 µM
A549 NSCLC
  GI50: 4.56 µM
  TGI: > 56.5 µM
A498 renal
  GI50: 13.1 µM
  TGI: 40 µM
OVCAR-3 ovarian
  GI50: 3.92 µM
  TGI: 12.1 µM
NCI-H522 lung
  GI50: 2.41 µM
  TGI: 11.6 µM
HL-60(TB) leukemia
  GI50: 1.78 µM
  TGI: 8.34 µM
SK-MEL-2 melanoma
  GI50: 8.75 µM
  TGI: 19.8 µM
SF-268 CNS
  GI50: 5.6 µM
  TGI: 43.5 µM
IGROV1 ovarian
  GI50: 8.95 µM
  TGI: 25 µM
K-562 leukemia
  GI50: 1.91 µM
  TGI: 12.4 µM
KM12 colon
  GI50: 3.27 µM
  TGI: 14.9 µM
NCI-H23 lung
  GI50: 6.13 µM
  TGI: 18.8 µM
HCT-116 colon
  GI50: 2.17 µM
  TGI: 12.6 µM
BT-549 breast
  GI50: 6.27 µM
  TGI: 18.9 µM
ACHN renal
  GI50: 6.67 µM
  TGI: 20.3 µM
MDA-MB-468 breast
  GI50: 1.11 µM
  TGI: 7.28 µM
SF-539 CNS
  GI50: 10.8 µM
  TGI: 27.4 µM
T-47D breast
  GI50: 1.9 µM
  TGI: 23.8 µM
SW-620 colon
  GI50: 5.67 µM
  TGI: 14.6 µM
NCI-H226 lung
  GI50: 5.95 µM
  TGI: 15 µM
EKVX NSCLC
  GI50: 3.7 µM
  TGI: 31.7 µM
SK-OV-3 ovarian
  GI50: 17.7 µM
  TGI: > 56.5 µM
NCI/ADR-RES ovarian
  GI50: 7.86 µM
  TGI: 26.8 µM
SR leukemia
  GI50: 2.18 µM
  TGI: 21.7 µM
HOP-92 NSCLC
  GI50: 5.99 µM
  TGI: 14.3 µM
HT29 colon
  GI50: 6.12 µM
  TGI: 18.9 µM
UO-31 renal
  GI50: 4.31 µM
  TGI: 13.8 µM
HOP-62 NSCLC
  GI50: 12.9 µM
  TGI: 27.5 µM
SK-MEL-5 melanoma
  GI50: 3.66 µM
  TGI: 11.4 µM
LOX IMVI melanoma
  GI50: 3.11 µM
  TGI: 10.5 µM
MDA-MB-231 breast
  GI50: 6.8 µM
  TGI: 13.9 µM
COLO 205 colon
  GI50: 10.4 µM
  TGI: 24 µM
